According to ChEMBL document CHEMBL5338773, “First-in-Class Selective Inhibitors of the Lysine Acetyltransferase KAT8” (J Med Chem, 2023):
Activity calls are given as the source filed them. The calls are words filed in the database; no cut-off is given here.

Key:
[1] = GSH reactivity of compound at pH 7.5 buffer at 0.5 mM and measured upto 24 hrs in presence of DTT and BME by HPLC analysis; type: physicochemical; conditions: pH 7.5, 24 h, 500 µM
[2] = target: T1, Histone acetyltransferase KAT8 (Homo sapiens) (UniProt Q9H7Z6); test: Inhibition of human KAT8 in human HT-29 cells assessed as decrease in histone H4K16 acetylation level by measuring fluorescence intensity in nucleus at 50 uM incubated for 24 hrs by DAPI staining based immunofluorescence analysis; type: cell-based
T1 sequence (whole entry): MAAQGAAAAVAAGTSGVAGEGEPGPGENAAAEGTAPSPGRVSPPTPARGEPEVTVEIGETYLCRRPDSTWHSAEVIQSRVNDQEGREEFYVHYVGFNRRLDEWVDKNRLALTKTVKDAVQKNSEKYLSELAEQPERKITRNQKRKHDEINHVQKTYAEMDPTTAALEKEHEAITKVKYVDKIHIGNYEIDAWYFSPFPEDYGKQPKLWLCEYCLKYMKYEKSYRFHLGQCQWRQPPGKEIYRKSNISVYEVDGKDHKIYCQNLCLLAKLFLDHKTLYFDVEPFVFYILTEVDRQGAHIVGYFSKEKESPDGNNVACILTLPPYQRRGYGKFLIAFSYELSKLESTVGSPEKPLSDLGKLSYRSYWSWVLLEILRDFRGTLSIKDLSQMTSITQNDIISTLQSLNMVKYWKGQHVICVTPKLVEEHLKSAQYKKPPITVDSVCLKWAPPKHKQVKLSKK

NCI-H460 = test: Antiproliferative activity against human NCI-H460 cells assessed as cell proliferation inhibition at 10 to 100 uM incubated for 72 hrs by MTT assay; type: functional, cell-based; conditions: dose 10-100 µM
HeLa [3] = test: Induction of autophagy in human HeLa cells stably expressing EGFP-LC3 assessed as change in LC3-II/LC3-I ratio at 10 to 100 uM incubated for 48 hrs by Western blot analysis; type: functional, cell-based; conditions: dose 10-100 µM
HT-29 = test: Induction of apoptosis in human HT-29 cells assessed as slight increase in apoptotic cells at 50 to 100 uM incubated for 72 hrs by Annexin V-FITC staining based flow cytometry; type: functional, cell-based; conditions: dose 50-100 µM
HeLa [4] = test: Induction of autophagy in human HeLa cells stably expressing EGFP-LC3 assessed as increase in p62 expression level at 10 to 100 uM incubated for 48 hrs by Western blot analysis; type: functional, cell-based; conditions: dose 10-100 µM
HeLa [5] = test: Effect on cell cycle progression in human HeLa cells assessed as changes in cell cycle stages at 50 to 100 uM incubated for 72 hrs by PI-staining based flow cytometry; type: functional; conditions: dose 50-100 µM
HCT-116 [6] = test: Downregulation of HOXA9A mRNA expression in human HCT-116 cells at 100 uM incubated for 48 hrs by qRT-PCR analysis; type: functional, cell-based
[7] = target: Histone acetyltransferase KAT7 (Homo sapiens) (UniProt O95251); test: Inhibition of recombinant human full length KAT7 using histone H3 peptide and [3H]-acetyl-coA as substrates at 200 uM incubated for 1 hrs by liquid scintillation counter analysis
HCT-116 [8] = test: Antiproliferative activity against human HCT-116 cells assessed as cell proliferation inhibition at 100 uM incubated for 72 hrs by MTT assay; type: functional; design: scale not given: the % may be the effect or the level left
[9] = target: Histone acetyltransferase KAT6A (Homo sapiens) (UniProt Q92794); test: Inhibition of recombinant human KAT6A (488 to 778 residues) using histone H3 peptide and [3H]-acetyl-coA as substrates at 200 uM incubated for 1 hrs by liquid scintillation counter analysis
Sequence of Histone acetyltransferase KAT6A (Homo sapiens) (Q92794 whole entry, looked up, the tested form may be a part): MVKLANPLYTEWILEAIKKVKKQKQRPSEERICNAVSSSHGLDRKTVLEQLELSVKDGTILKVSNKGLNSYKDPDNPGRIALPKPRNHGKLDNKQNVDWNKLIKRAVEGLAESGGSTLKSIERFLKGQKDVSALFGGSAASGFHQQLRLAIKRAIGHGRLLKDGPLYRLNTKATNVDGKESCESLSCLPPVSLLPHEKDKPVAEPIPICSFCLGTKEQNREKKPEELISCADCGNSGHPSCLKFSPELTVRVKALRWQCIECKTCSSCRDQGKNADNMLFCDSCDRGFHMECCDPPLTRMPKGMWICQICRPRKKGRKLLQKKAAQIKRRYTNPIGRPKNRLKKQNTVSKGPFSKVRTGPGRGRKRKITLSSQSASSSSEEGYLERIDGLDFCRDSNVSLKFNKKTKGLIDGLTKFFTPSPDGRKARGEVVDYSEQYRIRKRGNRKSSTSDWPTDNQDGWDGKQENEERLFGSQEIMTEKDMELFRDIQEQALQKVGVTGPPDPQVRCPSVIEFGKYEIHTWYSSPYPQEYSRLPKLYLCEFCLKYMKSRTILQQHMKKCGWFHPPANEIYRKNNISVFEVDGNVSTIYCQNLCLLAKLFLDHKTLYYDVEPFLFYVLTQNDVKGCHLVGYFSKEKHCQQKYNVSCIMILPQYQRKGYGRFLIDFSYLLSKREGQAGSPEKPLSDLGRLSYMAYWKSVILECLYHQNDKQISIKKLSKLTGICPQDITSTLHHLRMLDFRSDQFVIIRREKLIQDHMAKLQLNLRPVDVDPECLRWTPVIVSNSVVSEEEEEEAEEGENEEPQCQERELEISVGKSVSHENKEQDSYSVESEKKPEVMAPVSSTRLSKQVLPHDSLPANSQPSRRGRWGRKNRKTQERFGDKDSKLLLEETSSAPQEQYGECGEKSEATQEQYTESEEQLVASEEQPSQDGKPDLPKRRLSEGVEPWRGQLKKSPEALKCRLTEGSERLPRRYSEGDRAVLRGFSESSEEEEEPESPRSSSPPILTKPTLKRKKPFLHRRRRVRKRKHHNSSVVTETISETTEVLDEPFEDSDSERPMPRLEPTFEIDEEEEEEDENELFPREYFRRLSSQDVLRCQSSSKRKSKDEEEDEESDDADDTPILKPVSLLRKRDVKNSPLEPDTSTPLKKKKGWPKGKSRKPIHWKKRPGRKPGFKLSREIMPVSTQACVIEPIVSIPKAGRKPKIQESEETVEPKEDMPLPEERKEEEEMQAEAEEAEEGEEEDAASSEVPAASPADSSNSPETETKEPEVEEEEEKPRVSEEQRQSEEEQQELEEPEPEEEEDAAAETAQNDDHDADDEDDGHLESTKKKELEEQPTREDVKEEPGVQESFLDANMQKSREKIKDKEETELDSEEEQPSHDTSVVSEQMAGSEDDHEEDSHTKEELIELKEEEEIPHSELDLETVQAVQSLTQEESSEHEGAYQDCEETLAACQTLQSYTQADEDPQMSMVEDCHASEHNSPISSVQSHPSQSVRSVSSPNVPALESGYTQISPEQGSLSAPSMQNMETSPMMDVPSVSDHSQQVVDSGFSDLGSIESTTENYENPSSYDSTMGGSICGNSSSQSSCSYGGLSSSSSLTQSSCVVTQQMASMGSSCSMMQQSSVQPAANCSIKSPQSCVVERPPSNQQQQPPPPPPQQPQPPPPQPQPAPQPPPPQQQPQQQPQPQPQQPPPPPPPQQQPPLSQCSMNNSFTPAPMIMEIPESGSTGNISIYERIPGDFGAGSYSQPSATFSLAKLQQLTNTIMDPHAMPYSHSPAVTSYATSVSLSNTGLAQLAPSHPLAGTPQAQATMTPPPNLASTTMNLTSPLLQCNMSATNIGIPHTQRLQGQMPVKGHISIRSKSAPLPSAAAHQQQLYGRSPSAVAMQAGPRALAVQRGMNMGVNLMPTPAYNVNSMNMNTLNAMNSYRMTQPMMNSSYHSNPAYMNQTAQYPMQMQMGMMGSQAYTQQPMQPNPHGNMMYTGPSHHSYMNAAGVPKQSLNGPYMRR

Sequence of Histone acetyltransferase KAT7 (Homo sapiens) (O95251 whole entry): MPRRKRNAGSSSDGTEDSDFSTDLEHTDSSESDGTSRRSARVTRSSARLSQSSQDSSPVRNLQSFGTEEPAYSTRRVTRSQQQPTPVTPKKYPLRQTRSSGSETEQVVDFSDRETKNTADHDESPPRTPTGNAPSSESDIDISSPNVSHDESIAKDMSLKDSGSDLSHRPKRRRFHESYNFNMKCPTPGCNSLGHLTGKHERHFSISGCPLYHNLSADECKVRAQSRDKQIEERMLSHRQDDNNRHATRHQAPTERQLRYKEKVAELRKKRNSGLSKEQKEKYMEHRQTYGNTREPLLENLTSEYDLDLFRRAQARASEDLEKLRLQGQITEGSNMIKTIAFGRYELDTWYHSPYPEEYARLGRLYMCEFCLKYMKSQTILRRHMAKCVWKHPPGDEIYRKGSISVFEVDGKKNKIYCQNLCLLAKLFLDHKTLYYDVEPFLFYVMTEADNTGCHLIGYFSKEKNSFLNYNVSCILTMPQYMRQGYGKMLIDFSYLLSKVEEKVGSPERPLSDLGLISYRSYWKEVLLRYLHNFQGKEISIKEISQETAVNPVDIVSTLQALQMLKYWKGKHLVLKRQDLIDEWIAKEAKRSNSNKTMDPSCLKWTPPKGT

Row | Drug metabolism [1] | inhibition [2] [%] | inhibition [7] | inhibition [9] | Structure (SMILES) | Activity (NCI-H460) | Activity (HeLa [3]) | Activity (HT-29) | Activity (HeLa [4]) | Activity (HeLa [5]) | Activity (HCT-116 [6]) | Activity (HCT-116 [8]) [%]
1 | Not Active | > 50 | – | – | O=C(O)c1ccc(N2N=C(c3ccccc3)/C(=C/c3ccc[nH]3)C2=O)cc1 | inactive | Active | Active | Active | inactive | Active | –
2 | Not Active | – | inactive | inactive | CC1=NN(c2ccc(C(=O)O)cc2)C(=O)/C1=C\c1ccc[nH]1 | Active | – | Active | – | inactive | – | >80
